Test results from patent EP2951180B1, “2,6,7,8 SUBSTITUTED PURINES AS HDM2 INHIBITORS” (Merck Sharp & Dohme Corp., priority 2013, dated 2014).

target: T1, HDM2 (Homo sapiens, UniProt Q00987); assay: HDM2 FRET assay (inhibition of binding of FITC labeled p53-pocket peptide to HDM2); details: Table 7; read-out: FRET IC50
T1 construct: Thioredoxin (N); made in house; host or cells: E. coli strain BL21(DE3)Rosetta
How it was run: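 Compounds were tested in 10-point serial dilution against 0.5 nM recombinant HDM2 binding 3 nM fluorescein-labeled p53-pocket peptide. Detection used 0.25 nM terbium cryptate anti-6xHis antibody in PBS buffer containing 0.01% BSA and 0.01% Tween-20.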

T1 sequence (Q00987 17-125): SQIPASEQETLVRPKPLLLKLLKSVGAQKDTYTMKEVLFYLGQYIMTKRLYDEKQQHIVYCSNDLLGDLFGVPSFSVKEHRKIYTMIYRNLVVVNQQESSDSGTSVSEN

SMILES	IC50 [nM]
Cc1cccc(-c2nc3nc(C(=O)O)nc(N[C@H](CCCN(C)C)C4CCC4)c3n2Cc2ccc(C(F)(F)F)cc2)c1 [Example 7.11, 6-{[(1R)-1-cyclobutyl-4-(dimethylamino)butyl]amino}-8-(3-methylphenyl)-7-[4-(trifluoromethyl)benzyl]-7H-purine-2-carboxylic acid]	323
Cc1cccc(-c2nc3nc(C(=O)O)nc(N[C@H](CCC(N)=O)C4CCC4)c3n2Cc2ccc(C(F)(F)F)cc2)c1 [Example 7.12, 6-{[(1R)-4-amino-1-cyclobutyl-4-oxobutyl]amino}-8-(3-methylphenyl)-7-[4-(trifluoromethyl)benzyl]-7H-purine-2-carboxylic acid]	55.3
CNC(=O)CC[C@@H](Nc1nc(C(=O)O)nc2nc(-c3cccc(C)c3)n(Cc3ccc(C(F)(F)F)cc3)c12)C1CCC1 [Example 7.13, 6-{[(1R)-1-cyclobutyl-4-(methylamino)-4-oxobutyl]amino}-8-(3-methylphenyl)-7-[4-(trifluoromethyl)benzyl]-7H-purine-2-carboxylic acid]	102
Cc1cccc(-c2nc3nc(C(=O)O)nc(N[C@H](CC(O)CO)C4CCC4)c3n2Cc2ccc(C(F)(F)F)cc2)c1 (stereo partly drawn) [Example 7.15, 6-{[(1R)-1-cyclobutyl-3,4-dihydroxybutyl]amino}-8-(3-methylphenyl)-7-[4-(trifluoromethyl)benzyl]-7H-purine-2-carboxylic acid]	26.5
CC(C)c1ccnc(-c2nc3nc(C(=O)O)nc(N[C@H](c4ccccc4)C4CCC4)c3n2Cc2ccc(C(F)(F)F)cc2)c1 [Example 7.16, 6-{[(S)-cyclobutyl(phenyl)methyl]amino}-8-[4-(1-methylethyl)pyridin-2-yl]-7-[4-(trifluoromethyl)benzyl]-7H-purine-2-carboxylic acid]	40.6
COc1ccc(C)cc1-c1nc2nc(C(=O)O)nc(N[C@H](C)C3CC(F)(F)C3)c2n1Cc1ccc(C(F)(F)F)cc1 [Example 7.17, 6-{[(1R)-1-(3,3-difluorocyclobutyl)ethyl]amino}-8-(2-methoxy-5-methylphenyl)-7-[4-(trifluoromethyl)benzyl]-7H-purine-2-carboxylic acid]	58.9
COc1ccc(C)cc1-c1nc2nc(C(=O)O)nc(NC(C)C3CC(C)C3)c2n1Cc1ccc(C(F)(F)F)cc1 (centres unmarked) [Example 7.18, 8-(2-methoxy-5-methylphenyl)-6-{[1-(3-methylcyclobutyl)ethyl]amino}-7-[4-(trifluoromethyl)benzyl]-7H-purine-2-carboxylic acid]	162
COc1ccc(C)cc1-c1nc2nc(C(=O)O)nc(N[C@H](C)C3CC3(F)F)c2n1Cc1ccc(C(F)(F)F)cc1 (stereo partly drawn) [Example 7.19, 6-{[(1R)-1-(2,2-difluorocyclopropyl)ethyl]amino}-8-(2-methoxy-5-methylphenyl)-7-[4-(trifluoromethyl)benzyl]-7H-purine-2-carboxylic acid]	772

same assay, conditions: Table 8; read-out: FRET IC50

SMILES	IC50 [nM]
CC(C)c1ccnc(-c2nc3nc(C(=O)O)nc(N[C@H](C)C4CCC4)c3n2Cc2ccc(C(F)(F)F)cc2N)c1 [Example 8.1, 7-[2-amino-4-(trifluoromethyl)benzyl]-6-{[(1R)-1-cyclobutylethyl]amino}-8-[4-(propan-2-yl)pyridin-2-yl]-7H-purine-2-carboxylic acid]	1.62

same assay, conditions: Table 9; read-out: FRET IC50

SMILES	IC50 [nM]
C[C@H](Nc1nc2nc(C(=O)O)nc(N[C@H](C)C3CCC3)c2n1Cc1ccc(C(F)(F)F)cc1)c1ccc(F)cc1 [Example 9.1, 6-{[(1R)-1-cyclobutylethyl]amino}-8-{[(1S)-1-(4-fluorophenyl)ethyl]amino}-7-[4-(trifluoromethyl)benzyl]-7H-purine-2-carboxylic acid]	1.81
C[C@@H](Nc1nc(C(=O)O)nc2nc(N(C)c3ccccc3)n(Cc3ccc(C(F)(F)F)cc3)c12)C1CCC1 [Example 9.2, 6-{[(1R)-1-cyclobutylethyl]amino}-8-[methyl(phenyl)amino]-7-[4-(trifluoromethyl)benzyl]-7H-purine-2-carboxylic acid]	20.7
C[C@@H](Nc1nc(C(=O)O)nc2nc(N3CCCCC3Cc3ccccc3)n(Cc3ccc(C(F)(F)F)cc3)c12)C1CCC1 (stereo partly drawn) [Example 9.3, 8-(2-benzylpiperidin-1-yl)-6-{[(1R)-1-cyclobutylethyl]amino}-7-[4-(trifluoromethyl)benzyl]-7H-purine-2-carboxylic acid]	14.5
C[C@@H](Nc1nc(-c2noc(=O)[nH]2)nc2nc(N3CCOC[C@H]3c3ccccc3)n(Cc3ccc(Cl)c(F)c3)c12)C1CCC1 [Example 9.4, 3-{7-(4-chloro-3-fluorobenzyl)-6-{[(1R)-1-cyclobutylethyl]amino}-8-[(3R)-3-phenylmorpholin-4-yl]-7H-purin-2-yl}-1,2,4-oxadiazol-5(4H)-one]	0.848
C[C@@H](Nc1nc(C(=O)O)nc2nc(N3CCN(C)CC3)n(Cc3ccc(C(F)(F)F)cc3)c12)C1CC1 [Example 9.5, 6-{[(1R)-1-cyclopropylethyl]amino}-8-(4-methylpiperazin-1-yl)-7-[4-(trifluoromethyl)benzyl]-7H-purine-2-carboxylic acid]	2350
C[C@@H](Nc1nc(C(=O)O)nc2nc(N[C@@H](CO)c3ccccc3)n(Cc3ccc(C(F)(F)F)cc3)c12)C1CCC1 [Example 9.6, 6-{[(1R)-1-cyclobutylethyl]amino}-8-{[(1R)-2-hydroxy-1-phenylethyl]amino}-7-[4-(trifluoromethyl)benzyl]-7H-purine-2-carboxylic acid]	1.47
C[C@H](CO)Nc1nc2nc(C(=O)O)nc(N[C@H](C)C3CCC3)c2n1Cc1ccc(C(F)(F)F)cc1 [Example 9.7, 6-{[(1R)-1-cyclobutylethyl]amino}-8-{[(1R)-2-hydroxy-1-methylethyl]amino}-7-[4-(trifluoromethyl)benzyl]-7H-purine-2-carboxylic acid]	35.8
C[C@@H](Nc1nc(C(=O)O)nc2nc(N[C@H](CO)c3ccccc3)n(Cc3ccc(C(F)(F)F)cc3)c12)C1CCC1 [Example 9.8, 6-{[(1R)-1-cyclobutylethyl]amino}-8-{[(1S)-2-hydroxy-1-phenylethyl]amino}-7-[4-(trifluoromethyl)benzyl]-7H-purine-2-carboxylic acid]	15.2
C[C@@H](Nc1nc(C(=O)O)nc2nc(N3CCOCC3)n(Cc3ccc(Cl)cc3)c12)C1CC1 [Example 9.9, 7-(4-chlorobenzyl)-6-{[(1R)-1-cyclopropylethyl]amino}-8-morpholin-4-yl-7H-purine-2-carboxylic acid]	574
C[C@@H](CO)Nc1nc2nc(C(=O)O)nc(N[C@H](C)C3CCC3)c2n1Cc1ccc(C(F)(F)F)cc1 [Example 9.10, 6-{[(1R)-1-cyclobutylethyl]amino}-8-{[(1S)-2-hydroxy-1-methylethyl]amino}-7-[4-(trifluoromethyl)benzyl]-7H-purine-2-carboxylic acid]	85.9
C[C@@H](Nc1nc(C(=O)O)nc2nc(N3CCCCC3)n(Cc3ccc(C(F)(F)F)cc3)c12)C1CCC1 [Example 9.11, 6-{[(1R)-1-cyclobutylethyl]amino}-8-piperidin-1-yl-7-[4-(trifluoromethyl)benzyl]-7H-purine-2-carboxylic acid]	17.6
C[C@@H](Nc1nc(C(=O)O)nc2nc(NC3CCCCC3)n(Cc3ccc(C(F)(F)F)cc3)c12)C1CCC1 [Example 9.12, 6-{[(1R)-1-cyclobutylethyl]amino}-8-(cyclohexylamino)-7-[4-(trifluoromethyl)benzyl]-7H-purine-2-carboxylic acid]	7.65
C[C@@H](Nc1nc(C(=O)O)nc2nc(NCc3ccccc3)n(Cc3ccc(C(F)(F)F)cc3)c12)C1CCC1 [Example 9.13, 8-(benzylamino)-6-{[(1R)-1-cyclobutylethyl]amino}-7-[4-(trifluoromethyl)benzyl]-7H-purine-2-carboxylic acid]	3.07
C[C@@H](Nc1nc(C(=O)O)nc2nc(N(C)Cc3ccccc3)n(Cc3ccc(C(F)(F)F)cc3)c12)C1CCC1 [Example 9.14, 8-[benzyl(methyl)amino]-6-{[(1R)-1-cyclobutylethyl]amino}-7-[4-(trifluoromethyl)benzyl]-7H-purine-2-carboxylic acid]	5.62
C[C@@H](Nc1nc(C(=O)O)nc2nc(N(C)C3CCCCC3)n(Cc3ccc(C(F)(F)F)cc3)c12)C1CCC1 [Example 9.15, 6-{[(1R)-1-cyclobutylethyl]amino}-8-[cyclohexyl(methyl)amino]-7-[4-(trifluoromethyl)benzyl]-7H-purine-2-carboxylic acid]	7.4
C[C@H](Nc1nc2nc(C(=O)O)nc(N[C@H](C)C3CCC3)c2n1Cc1ccc(C(F)(F)F)cc1)c1ccccc1 [Example 9.16, 6-{[(1R)-1-cyclobutylethyl]amino}-8-{[(1S)-1-phenylethyl]amino}-7-[4-(trifluoromethyl)benzyl]-7H-purine-2-carboxylic acid]	1.91
C[C@@H](Nc1nc2nc(C(=O)O)nc(N[C@H](C)C3CCC3)c2n1Cc1ccc(C(F)(F)F)cc1)c1ccccc1 [Example 9.17]	15.8
C[C@@H](Nc1nc(C(=O)O)nc2nc(N3CCOC(C)(C)C3)n(Cc3ccc(C(F)(F)F)cc3)c12)C1CCC1 [Example 9.18, 6-{[(1R)-1-cyclobutylethyl]amino}-8-(2,2-dimethylmorpholin-4-yl)-7-[4-(trifluoromethyl)benzyl]-7H-purine-2-carboxylic acid]	32.7
C[C@@H](Nc1nc(C(=O)O)nc2nc(N3CC(C)(C)OC(C)(C)C3)n(Cc3ccc(C(F)(F)F)cc3)c12)C1CCC1 [Example 9.19, 6-{[(1R)-1-cyclobutylethyl]amino}-8-(2,2,6,6-tetramethylmorpholin-4-yl)-7-[4-(trifluoromethyl)benzyl]-7H-purine-2-carboxylic acid]	12.4
CC1CN(c2nc3nc(C(=O)O)nc(N[C@H](C)C4CCC4)c3n2Cc2ccc(C(F)(F)F)cc2)CCO1 (stereo partly drawn) [Example 9.20, 6-{[(1R)-1-cyclobutylethyl]amino}-8-(2-methylmorpholin-4-yl)-7-[4-(trifluoromethyl)benzyl]-7H-purine-2-carboxylic acid]	63.1
